Assay [1] concerns IkBa/Ubiquitin complexes. Briefly: IkBa/ubiquitin YFP PCA in HEK293T cells. The format is cell-based. Particulars: TNF induced HEK293T cells, ALLN versus vehicle. As to the method: IkBa-YFP[1] and YFP[2]-ubiquitin were constructed as described above and transiently expressed in HEK293T cells. […] The present invention can be applied to the large-scale identification of proteins modified by ubiquitin and ubiquitin-like polypeptides; for example, using library screening as in Example 2 of the present invention where the ‘bait’ is ubiquitin or a ubiquitin-like molecule, or by using interaction mapping as in Example 4 where ubiquitin or a ubiquitin-like molecule is tested against individual cDNAs to identify ubiquitin-protein complexes. In addition, by constructing ubiquitin PCAs for specific protein targets, the assays that are the subject of the present invention can immediately be applied to high-throughput screening for novel therapeutic agents.

Assay [2] has as its system p50/p65 complex. Kind of assay: stable HEK293T p50/p65 YFP PCA cell line, nuclear translocation (N:C ratio). The format is cell-based. On the procedure:
Stable cell lines represent the gold standard for HTS since the assays can be reconstructed at any time from frozen stocks of cells. […] First, cells were co-transfected with YFP[2]-p65 encoding vectors, and stable cell lines were selected using 100 micrograms/ml of Hygromycin B (Invitrogen). Selected cell lines were then transfected with YFP[1]-p50. Stable cell lines expressing YFP[1]-p50/YFP[2]-p65 were isolated following double antibiotic selection with 50 μg/ml Hygromycin B and 500 μg/ml Zeocin. Cell clones stably expressing the fusion genes were identified by immunoblot analysis and fluorescence microscopy. A single cell line of each transfectant was selected for further characterization. Fluorescence of these lines is stable over at least 25 passages (data not shown). A stable, MEK/ERK cell line—constructed as described below—was used as a control for TNF effects. Fugene 6 (Roche) was used for all the transfections according to manufacturer's directions. Cells stably expressing YFP[1]-p50/YFP[2]-p65 were seeded at 20,000 cells/well in black-walled poly-lysine coated 96 well plate (Greiner). Twenty-four hours later, the cells were incubated with human TNF-alpha (Roche) for 30 min. Nuclei were stained with Hoechst 33342 (Molecular Probes) at 10 micrograms/ml for 10 min. Cells were rinsed with HBSS (Invitrogen) and kept in the same buffer. Fluorescence was visualized and images were acquired using a Discovery-1 automated fluorescence imager (Molecular Devices, Inc.) equipped with excitation and emission filters 470/35 and 535/60, respectively. […] For the high throughput screening campaign described below, cells were pretreated with compounds (10 micromolar) for 60 minutes and then stimulated with TNFalpha for 30 minutes in the presence of drugs. Cells were then fixed with 2% formaldehyde in HBSS and subsequently stained with Hoechst 33342. All liquid handling was done using a Biomek FX (Beckman) instrument and images were acquired as described above. Images were analyzed using Image J. Translocation is assessed by calculating the nuclear/cytoplasmic ratio of the mean fluorescence intensity for a population of cells (denoted as n) over several images for a given condition.
Genesis Plus is a collection of 960 diverse compounds, and includes compounds with known toxicity or fluorescent properties. Inclusion of compounds with such properties is important in HTS assay validation, as they might complicate analysis. The final concentration of compounds in wells was 10 micromolar, and all wells contained 0.5% DMSO concentration. […] Following fixation and staining of nuclei, fluorescence was analyzed on the automated fluorescent microscopy platform (Discovery 1; Universal Imaging/Molecular Devices Corp.). […]

The subject of assay [3] is p65/p50 complex. Kind of assay: DHFR PCA for NFkB (p65/p50) translocation in CHO DUKXB11 cells. The assay is classed as cell-based, mouse and human. Particulars: 40 micrograms/ml ALLN. On the procedure:
Coding regions of NFkB subunits p65 and p50 (corresponding to N-terminal 436 amino acids) were PCR amplified from mouse and human cDNAs, respectively, and ligated in-frame downstream of a 15 amino acid flexible linker (GGGGS)3 (SEQ ID No.30) followed by DHFR fragment F[1,2] or F[3] in pCDNA3.1zeo (Invitrogen). IkBa was subcloned separately into pCDNA3.1. For transient expression of these genes, 8×10e4 DHFR-deficient CHO DXB11 cells were seeded into 12 well plates and transfected 24 hours later with [F1,2]-p65, [F3]-p50, and IkBa at the molar ratio of 1:1:1 for each fusion construct using Fugene (Boehringer Mannheim) according to manufacturer's instructions. For controls, where indicated, empty pCDNA3.1 was used in place of IkBa. A total of 1 microgram of DNA was used per well.
Forty-eight hours post-transfection, complexes of F[1,2]-p65 and [F3]-p50 were detected by fluorescence microscopy. […]
To examine the effect of proteasome inhibition on NFkB nuclear translocation, the transiently transfected cells expressing the DHFR PCA were treated with 40 micrograms/ml ALLN (Calbiochem) for 1 hr prior to TxR-MTX labeling and for the subsequent duration of the experiment. The cells were rinsed with PBS and the subcellular location of NFkB complexes were visualized using a Nikon Eclipse TE2000 fluorescence microscope at excitation and emission wavelengths of 580 nm and 625 nm, respectively. […]

Entries after “also recorded” stand apart in the source; their conditions may differ. Non-standard residues stand in square brackets, D forms with d. Residues, ends and D or L forms follow the SMILES beside them. Nle = CCCC[C@H](N)C(=O)O

In the case of `CCCC[C@@H](C=O)NC(=O)[C@H](CC(C)C)NC(=O)[C@H](CC(C)C)NC(C)=O` [ALLN] (Ac-Leu-Leu-[Nle]-aldehyde), the “mean fluorescence intensity of ubiquitin-IkBa complexes” value in assay [1] is “increases the accumulation; also recorded: significantly increased”. Besides, the “block of TNF-induced increases in the N:C ratio of p50/p65 complexes” value in assay [2] (ALLN treatment for 4 hr) worked out at 76%. In addition, in assay [2] (FIG. 12(B)), the “effect on the TNF response in the stable p65/p50 PCA cell line (in words)” value is reported as “inhibition of the TNF response”. Also, the “effect on TNF-induced cytoplasmic-to-nuclear translocation of NFkB complexes in DHFR PCA” value in assay [3] is on record as “inhibition of the nuclear translocation; also recorded: inhibits”.

(Values after patent US7062219B2, “Protein fragment complementation assays for high-throughput and high-content screening” (Odyssey Thera Inc., priority 1997, dated 2006).)
